Like-named read-outs stand apart in the source and are kept apart here.
Assays:
[1] = target: T1, GAL4 DBD-CfEcR(DEF)/VP16AD-MmRXRE (Choristoneura fumiferana, UniProt O77240); assay: 13B3 assay: luciferase reporter gene induction in stable CHO clone 13B3; type: cell-based; settings: for fold induction at 33.3 µM: 48 h, read-out: Fold Induction Average, 13B3 assay; for Rel Max FI, 13B3 assay: maximum fold induction relative to that of GS-E ligand
T1 construct: The wild-type D, E, and F domains from spruce budworm Choristoneura fumiferana EcR (“CfEcR-DEF”)
Summary of the method: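 Stable CHO clone 13B3 co-expressing GAL4 DBD-CfEcR(DEF) and VP16AD-MmRXRE with a GAL4 RE-luciferase reporter; ligands from DMSO stocks diluted 300-fold. Luciferase read by luminescence 48 h after treatment, duplicate wells averaged. Fold induction = RLU treated/RLU DMSO; EC50 from three-parameter logistic fit.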

[2] = target: T2, GAL4 DBD (1-147)-CfEcR(DEF)/VP16AD-βRXREF-LmUSPEF (Choristoneura fumiferana, UniProt O77240); assay: cell-based; settings: for Rel Max FI, 27-63 assay: maximum fold induction relative to that of GS-E ligand; for fold induction at 33.3 µM: 48 h, read-out: Fold Induction Average, 27-63 assay
T2 construct: The wild-type D, E, and F domains from spruce budworm Choristoneura fumiferana EcR (“CfEcR-DEF”)
Summary of the method: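 CHO clone stably carrying the GAL4-DBD–spruce budworm EcR(DEF) and VP16–RXR/USP chimeric receptor with a GAL4-responsive luciferase reporter; ligand added from DMSO stock diluted 300-fold.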

[3] = target: T3, Bombyx mori EcR (VBE) (Bombyx mori, UniProt P49881); assay: Z3 assay: β-galactosidase reporter gene induction in HEK-293 clone Z3 (CVBE / 6XEcRE LacZ); type: cell-based; settings: for fold induction at 33 µM: HEK293, 48 h, read-out: Fold Induction Average, Z3 assay; for Rel Max FI, Z3 assay: maximum fold induction relative to that of GS-E ligand
T3 construct: expressed in transfected cells; host or cells: Human HEK-293 cells, retrovirally infected, clone Z3
T3 sequence (P49881 86-606 limits assumed): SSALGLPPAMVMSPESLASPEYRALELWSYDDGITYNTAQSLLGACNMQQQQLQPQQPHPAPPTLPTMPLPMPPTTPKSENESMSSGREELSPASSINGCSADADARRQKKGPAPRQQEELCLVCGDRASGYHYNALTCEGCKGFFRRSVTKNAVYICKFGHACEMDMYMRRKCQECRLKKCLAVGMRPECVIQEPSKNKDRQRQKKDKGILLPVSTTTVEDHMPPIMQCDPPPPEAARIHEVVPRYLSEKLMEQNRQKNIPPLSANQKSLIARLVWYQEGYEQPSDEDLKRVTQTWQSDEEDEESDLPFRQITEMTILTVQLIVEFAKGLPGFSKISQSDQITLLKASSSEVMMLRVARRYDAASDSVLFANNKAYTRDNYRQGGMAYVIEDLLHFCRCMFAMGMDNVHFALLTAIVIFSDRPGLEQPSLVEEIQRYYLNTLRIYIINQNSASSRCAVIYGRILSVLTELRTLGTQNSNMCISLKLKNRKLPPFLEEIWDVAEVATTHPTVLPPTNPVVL
T3 sequence (P19793 1-462 partner): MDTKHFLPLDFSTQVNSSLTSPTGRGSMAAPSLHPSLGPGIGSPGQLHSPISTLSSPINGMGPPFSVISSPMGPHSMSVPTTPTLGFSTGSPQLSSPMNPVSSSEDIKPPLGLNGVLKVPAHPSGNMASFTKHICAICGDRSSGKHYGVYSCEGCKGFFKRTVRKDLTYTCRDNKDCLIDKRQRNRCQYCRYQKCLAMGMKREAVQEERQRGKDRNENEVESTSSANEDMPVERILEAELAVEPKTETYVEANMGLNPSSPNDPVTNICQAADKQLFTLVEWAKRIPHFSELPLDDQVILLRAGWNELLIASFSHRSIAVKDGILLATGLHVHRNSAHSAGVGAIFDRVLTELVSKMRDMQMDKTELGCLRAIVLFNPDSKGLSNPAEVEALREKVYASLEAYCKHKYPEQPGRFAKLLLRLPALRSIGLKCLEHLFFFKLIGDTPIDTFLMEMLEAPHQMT

[4] = tested on: Plodia; assay: Plodia EC50; type: cell-based
[5] = tested on: Kc; assay: Kc EC50; type: cell-based
[6] = target: CfEcR (CDEF)/CfUSP, GST fusion protein (Choristoneura fumiferana, UniProt O77240); assay: CfEcR (CDEF)/CfUSP GST fusion protein assay; type: binding
[7] = tested on: MTA (two-spotted spider mite); assay: Insect toxicity contact bioassay, MTA; type: in vivo; settings: for Insect Toxicity LC50, MTA: in vivo
Procedure: (§1) The compound to be evaluated was dissolved in an appropriate solvent, usually a mix of acetone, methanol, and water. Test solutions were made by serial dilution of a stock test solution with acetone, methanol, and water. Initial evaluations were made at one or more concentrations on one or more of the following insects:
(§2) Contact bioassays (green peach aphid, two-spotted spider mite, white fly) were conducted by applying a solution of the test compound to the inside surface of a Petri dish. The solution was allowed to air-dry, then each dish was infested and the larvae from each treatment were transferred to a bioassay tray. The trays were held for one to seven days, and the mortality rating was determined for each treatment.

[8] = tested on: Beet Armyworm; assay: Insect toxicity feeding bioassay, BAW; type: in vivo; settings: in vivo
Procedure: as §1
(§3) Feeding bioassays were conducted in bioassay trays containing insect diet. Treatments were made by applying 50 μL of test solution to the surface of the diet in each of 5 wells. After the test solution dried, each well was infested with a single neonate larva. The trays were held for six days and then the mortality rating was determined for each treatment.

[9] = tested on: Cabbage Looper; assay: Insect toxicity feeding bioassay, CL; type: in vivo; settings: in vivo
Procedure: as §1, §3

[10] = tested on: Tobacco Budworm; assay: Insect toxicity bioassay, TBW; type: in vivo; settings: in vivo
Procedure: as §1, §3
Some of the tobacco budworm tests were conducted as follows. A test solution containing 600 ppm was made by dissolving a compound of the invention in a 1:1 acetone:methanol solution, then adding water to give a 5:5:90 acetone:methanol:water solution, and finally a surfactant was added at an equivalent of 7.37 g of surfactant per 100 L of test solution (1 ounce of surfactant per 100 gallons of test solution). Appropriate dilutions were prepared in water from the 600 ppm solution. A detached cotton leaf, Gossypium hirsutum was placed on moistened filter paper in a Petri dish (100×20 mms). The leaf was sprayed with the test solution using a rotating turntable sprayer and allowed to dry. The dish was infested with 10 first instar larvae of the tobacco budworm and covered with the lid. If the larvae were alive two days after treatment, fresh untreated cotton leaves were added. All treatments were maintained at 23.9-26.7° C. (75-80° F.) under fluorescent light in a well-ventilated room. Percent mortality was determined at four days after treatment.

[11] = tested on: WFN (white fly); assay: Insect toxicity contact bioassay, WFN; type: in vivo; settings: for Insect Toxicity LC50, WFN: in vivo
Procedure: as §1, §2

CfEcR (CDEF)/CfUSP, GST fusion protein, sequence (O77240 entry or part of it): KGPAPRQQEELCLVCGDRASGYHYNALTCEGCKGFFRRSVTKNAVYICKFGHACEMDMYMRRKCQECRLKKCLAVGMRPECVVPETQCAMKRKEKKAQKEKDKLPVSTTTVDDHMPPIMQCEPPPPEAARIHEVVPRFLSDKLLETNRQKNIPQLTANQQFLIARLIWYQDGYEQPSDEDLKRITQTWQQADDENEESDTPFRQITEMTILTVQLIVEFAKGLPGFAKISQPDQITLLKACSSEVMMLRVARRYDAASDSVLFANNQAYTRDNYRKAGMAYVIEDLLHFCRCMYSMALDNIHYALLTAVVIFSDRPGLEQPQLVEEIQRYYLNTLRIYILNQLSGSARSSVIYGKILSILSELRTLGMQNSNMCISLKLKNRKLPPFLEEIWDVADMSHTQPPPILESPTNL
CfEcR (CDEF)/CfUSP, GST fusion protein, sequence (O76202 whole entry, further chain, the tested form may be a part): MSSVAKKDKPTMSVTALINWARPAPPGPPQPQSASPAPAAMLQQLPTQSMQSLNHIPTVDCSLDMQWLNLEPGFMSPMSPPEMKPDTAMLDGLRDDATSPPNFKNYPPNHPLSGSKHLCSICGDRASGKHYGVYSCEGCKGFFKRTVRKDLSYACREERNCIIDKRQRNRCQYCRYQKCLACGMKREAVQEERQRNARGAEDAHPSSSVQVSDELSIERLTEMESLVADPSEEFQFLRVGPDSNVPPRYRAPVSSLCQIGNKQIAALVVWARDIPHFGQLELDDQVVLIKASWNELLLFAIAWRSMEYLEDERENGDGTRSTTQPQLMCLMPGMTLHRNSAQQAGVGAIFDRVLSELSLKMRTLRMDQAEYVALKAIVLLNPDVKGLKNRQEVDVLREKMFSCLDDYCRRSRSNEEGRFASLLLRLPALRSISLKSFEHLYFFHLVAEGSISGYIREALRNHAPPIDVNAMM

## COc1cccc(C(=O)NN2C(c3ccccc3)=NOC2(C)C)c1C [RG-120042, N-(5,5-dimethyl-3-phenyl-[1,2,4]oxadiazol-4-yl)-3-methoxy-2-methyl-benzamide]
[1]
  fold induction at 33.3 µM: 3.3
[2]
  EC50: > 33 µM
  Rel Max FI, 27-63 assay: 0
[3]
  fold induction at 33 µM: 19.3
[4]
  EC50: 0.481 µM
[5]
  EC50: 29 µM
other
  melting point: 141 to 142 °C

## CCc1c(OC)cccc1C(=O)NN1C(c2ccccc2)=NOC1(C)CC (centres unmarked) [RG-120076]
[1]
  EC50: > 33.3 µM
  fold induction at 33.3 µM: 20.2
  Rel Max FI, 13B3 assay: 0.05
[2]
  EC50: ~20 µM
  fold induction at 33.3 µM: 4090
  Rel Max FI, 27-63 assay: 1.4
[3]
  EC50: 12.4 µM
  fold induction at 33 µM: 0.2
  Rel Max FI, Z3 assay: 0.9
[6]
  EC50: 0.00835 µM
[7]
  Insect Toxicity LC50, MTA: 92 ppm
[8]
  Insect Toxicity LC50, BAW: 47 ppm
[9]
  Insect Toxicity LC50, CL: 47 ppm
[10]
  Insect Toxicity LC50, TBW: >150 ppm
[11]
  Insect Toxicity LC50, WFN: >150 ppm

## CCc1c(OC)cccc1C(=O)NN1C(c2cc(C)cc(C)c2)=NOC1(C)C [RG-120080, N-[3-(3,5-dimethyl-phenyl)-5,5-dimethyl-[1,2,4]oxadiazol-4-yl]-2-ethyl-3-methoxy-benzamide]
[1]
  EC50: 12.3 µM
  fold induction at 33.3 µM: 717
  Rel Max FI, 13B3 assay: 1.04
[2]
  EC50: 8.35 µM
  Rel Max FI, 27-63 assay: 1.29
[3]
  EC50: 3.95 µM
  fold induction at 33 µM: 310
  Rel Max FI, Z3 assay: 0.71
[6]
  Kd: 0.0119 µM
[7]; 150 ppm
  Insect Toxicity % control @ 150 ppm, MTA: 0% @ 150
[8]
  Insect Toxicity LC50, BAW: 23 ppm
[9]
  Insect Toxicity LC50, CL: 47 ppm
[10]
  Insect Toxicity LC50, TBW: >150 ppm
[11]; 150 ppm
  Insect Toxicity % control @ 150 ppm, WFN: 0% @ 150

## CCc1ccc(C(=O)NN2C(c3ccccc3)=NOC23CCCC3)cc1 [RG-120125]
[1]
  EC50: > 33.3 µM
  fold induction at 33.3 µM: 82.6
  Rel Max FI, 13B3 assay: 0.16
[2]
  EC50: ~20 µM
  fold induction at 33.3 µM: 510
  Rel Max FI, 27-63 assay: 0.27
[3]
  EC50: 10 µM
  fold induction at 33 µM: 254
  Rel Max FI, Z3 assay: 0.67
[6]; GST fusion protein, read-out: CfEcR EC50
  EC50: 0.0579 µM
[7]
  Insect Toxicity LC50, MTA: 167 ppm
[8]
  Insect Toxicity LC50, BAW: 98 ppm
[9]
  Insect Toxicity LC50, CL: 23 ppm
[10]
  Insect Toxicity LC50, TBW: >150 ppm
[11]
  Insect Toxicity LC50, WFN: 150 ppm

## CCc1ccc(C(=O)NN2C(c3cc(C)cc(C)c3)=NOC2(C)CC)cc1 (centres unmarked) [RG-120128]
[1]
  fold induction at 33.3 µM: 129
[2]
  EC50: ~20 µM
  fold induction at 33.3 µM: 338
  Rel Max FI, 27-63 assay: 0.18
[3]
  fold induction at 33 µM: 403
[6]
  EC50: 0.0285 µM
[7]
  Insect Toxicity LC50, MTA: >150 ppm
[8]
  Insect Toxicity LC50, BAW: 47 ppm
[9]
  Insect Toxicity LC50, CL: 17 ppm
[10]
  Insect Toxicity LC50, TBW: >150 ppm
[11]
  Insect Toxicity LC50, WFN: >150 ppm
